The record followed here is US5215999A, “Quinoline derivative and antiulcer agent containing said quinoline derivative” (Otsuka Pharmaceutical Co., Ltd., priority 1990, dated 1993).

Assay [1] relates to stomach-acid secretion. Briefly: Stomach-acid secretion inhibitory action on rats (histamine-stimulated, perfused stomach). The class given is in vivo, Wistar-type male rats. The following applies: Rattus norvegicus, iv; 0.3, 1, 3, 10 and 30 mg/kg; histamine dihydrochloride 1 mg/kg/hr; probit method. The method, then: (a) Stomach-Acid Secretion Inhibitory Action on Rats
After each of Wistar-type male rats was let abstain from food for 24 hours, the pylorus thereof was bound while the rat was paralyzed with urethane (1.5 g/kg s.c.), and a stomach perfusion cannula was inserted into the rat stomach. The rat stomach was perfused with a physiological salt solution through an oral catheter. The amount of stomach-acid secretion was measured by titrating the total acidity and pH of the perfusion solution. As an acid secretion stimulant, 1 mg/kg/hr of histamine dihydrochloride was continuously injected through the femoral vein to accelerate the acid secretion. Then, the effects of a variety of compounds were studied.
Each of test compounds as dissolved in dimethylformamide was intravenously administered to the rat in each of dosages of 0.3, 1, 3, 10 and 30 mg/kg through […].
There was calculated an inhibition percentage of acid secretion with respect to acid secretion before administration of each of the test compounds. An ED50 value was calculated from the inhibition percentage with respect to each dosage according to a probit method.

In assay [2] the target is T1, H^+ +K^+ ATPase (Sus scrofa, UniProt P19156).
T1 construct: prepared from the stomach of a pig; from tissue; host or cells: pig stomach
T1 sequence (P19156 2-1034 limits assumed): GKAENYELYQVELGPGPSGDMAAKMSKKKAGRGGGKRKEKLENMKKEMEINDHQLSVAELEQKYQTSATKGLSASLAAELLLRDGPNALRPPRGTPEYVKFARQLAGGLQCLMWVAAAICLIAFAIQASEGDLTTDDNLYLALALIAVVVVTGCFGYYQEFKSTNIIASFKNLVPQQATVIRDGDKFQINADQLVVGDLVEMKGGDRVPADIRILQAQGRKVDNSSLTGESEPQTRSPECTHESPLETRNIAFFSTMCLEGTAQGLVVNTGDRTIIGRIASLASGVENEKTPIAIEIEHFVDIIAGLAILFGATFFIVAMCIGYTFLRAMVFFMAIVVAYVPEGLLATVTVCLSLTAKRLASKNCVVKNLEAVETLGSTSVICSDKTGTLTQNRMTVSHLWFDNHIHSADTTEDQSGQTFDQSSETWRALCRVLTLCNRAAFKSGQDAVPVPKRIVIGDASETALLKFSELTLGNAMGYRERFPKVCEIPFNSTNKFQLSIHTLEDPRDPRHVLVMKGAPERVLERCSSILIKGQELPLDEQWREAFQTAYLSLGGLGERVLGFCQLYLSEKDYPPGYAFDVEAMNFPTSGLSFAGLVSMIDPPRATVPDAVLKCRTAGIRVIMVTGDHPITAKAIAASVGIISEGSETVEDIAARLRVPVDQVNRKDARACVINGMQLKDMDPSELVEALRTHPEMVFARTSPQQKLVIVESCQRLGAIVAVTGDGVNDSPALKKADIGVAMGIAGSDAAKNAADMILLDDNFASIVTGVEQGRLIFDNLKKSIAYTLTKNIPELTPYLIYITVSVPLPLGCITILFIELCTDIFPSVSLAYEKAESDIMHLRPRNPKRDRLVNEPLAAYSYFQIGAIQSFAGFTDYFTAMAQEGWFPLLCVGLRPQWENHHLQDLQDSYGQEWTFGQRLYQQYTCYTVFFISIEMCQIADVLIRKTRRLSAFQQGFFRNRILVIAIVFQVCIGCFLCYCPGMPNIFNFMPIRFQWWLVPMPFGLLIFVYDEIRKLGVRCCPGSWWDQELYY
T1 sequence (P18434 whole entry partner): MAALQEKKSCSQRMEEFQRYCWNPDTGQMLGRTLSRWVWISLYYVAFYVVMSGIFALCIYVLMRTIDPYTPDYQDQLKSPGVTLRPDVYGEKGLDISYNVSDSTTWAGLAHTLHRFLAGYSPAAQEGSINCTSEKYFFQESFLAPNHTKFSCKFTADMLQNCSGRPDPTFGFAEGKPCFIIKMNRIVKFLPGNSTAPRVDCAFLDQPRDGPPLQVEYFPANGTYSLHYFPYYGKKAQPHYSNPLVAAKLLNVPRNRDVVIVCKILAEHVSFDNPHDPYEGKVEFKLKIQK
The assay can be described thus: H+ + K+ ATPase inhibitory action. In kind it is biochemical. The following applies: pig stomach enzyme, protein 10 μg; pH 7.4, 37° C., 30 minutes. The method, then: (c) H^+ +K^+ ATPase Inhibitory Action
H^+ +K^+ ATPase (adenosinetriphosphatase)(protein: 10 μg) prepared from the stomach of a pig was added to a pipes-Tris [2-amino-2-(hydroxymethyl)-1,3-propandiol] buffer (pipes-Tris buffer)(pH 8.1) containing 2 mM piperazine N,N'-bis(2-ethane sulfonic acid). The resultant reaction solution was allowed to stand at a room temperature. Each of the test compounds was dissolved in dimethyl formamide, which was added to the H^+ +K^+ ATPase buffer such that the final concentration was 1%. The resultant reaction solution was reacted at a room temperature for 30 minutes. In the same manner, another reaction solution was prepared. Respectively added to the reaction solutions were 1 ml of a 75 mM pipes-TRIS buffer (pH 7.4) (containing 4 mM MgCl2, 4 mM Na2 ATP and 20 mM KCl) and 1 ml of a 75 mM pipes-Tris buffer (pH7.4) (containing 4 mM MgCl2 and 4 mM Na2 ATP). Thus, two kinds of samples were prepared and reacted at 37° C. for 30 minutes. Added to each of the samples was 0.3 ml of 40% trichloroacetic acid, thus completing the reaction. After the samples were subjected to centrifugal separation (3,000 rpm) for 10 minutes. The supernatant liquids were taken to produce inorganic phosphoric acids, of which amounts were measured according to a Fiske and Subbarow method [J. Biol. Chem. vol. 86,375 (1925)]. The amount of the inorganic phosphoric acid obtained from the pipes-Tris buffer containing no 20 mM KCl was deducted from the amount of the inorganic phosphoric acid obtained from the pipes-Tris buffer containing 20 mM KCl. The difference expressed in terms of unit protein per unit time was defined as an enzyme active value. The inhibition value (%) of each dosage was obtained from the control value and the enzyme active value at each dosage. Based on the inhibition value thus obtained, IC50 (the dosage of each test compound which achieves inhibition of 50%) was obtained.

Counter-ions that a name gives are not always drawn.

For orientation: ED50 means the dose at which the effect has come halfway, by size or by number of responders. Read a high ED50 as a need for a large dose. `C=CCNC(=O)c1cnc2c(OC)cccc2c1Nc1ccccc1C.Cl` [Test Compound 1, N-2-propenyl-8-methoxy-4-[(2-methylphenyl)amino]quinoline-3-carboxamide hydrochloride]: in assay [1], the ED50 was determined as 6.72 mg/kg.
What is called IC50 is the point on the concentration scale where inhibition reaches its midpoint. On to `C=CCNC(=O)c1cnc2c(OC)cccc2c1Nc1ccccc1SCCC` [Test Compound 5, N-2-propenyl-8-methoxy-4-[(2-propylthiophenyl)amino]quinoline-3-carboxamide hydrochloride], for which the IC50 in assay [2] is 1600 nM.
On the same count and under the same terms, the value for `C=CCNC(=O)c1cnc2c(OC)cccc2c1Nc1ccccc1CC` [Test Compound 2, N-2-propenyl-4-[(2-ethylphenyl)amino]-8-methoxyquinoline-3-carboxamide hydrochloride] was 2200 nM; that for `C=CCNC(=O)c1cnc2c(OC)cccc2c1Nc1ccccc1C(C)C` [Test Compound 3, N-2-propenyl-4-[(2-isopropylphenyl)amino]-8-methoxyquinoline-3-carboxamide hydrochloride] was 4900 nM.
